The test relates to human umbilical vein endothelial cells (HUVEC). In words: HUVEC proliferation assay. The note with it: Homo sapiens, HUVEC, table following Table II (untitled), crude combinatorial library; for inhibition at 0.001 µM: 1 nM; for inhibition at 0.01 µM: 10 nM, read-out: % inhibition @ 10 nM. In kind it is cell-based. An outline of the steps: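 Readout was MTT dye reduction (A595) after 72 h of stimulation with VEGF at 6 ng/ml final. Compound, in 0.1% DMSO final, was added 1 h before VEGF to HUVEC starved 24 h in 1% FBS. % inhibition was scaled between VEGF-alone and unstimulated wells; IC50 was fitted from triplicate dose curves.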

Structures are written as SMILES.

As for `COc1cc(Nc2nc(N)c(-c3nc(-c4cc(NC(=O)CC5CCC6CCC5C6)ccc4C)no3)s2)cc(OC)c1OC` (centres unmarked), the inhibition at 0.001 µM is -7% and the inhibition at 0.01 µM was 47%.

For the compound `COc1cc(Nc2nc(N)c(-c3nc(-c4cc(NC(=O)CCN5CCCCC5)ccc4C)no3)s2)cc(OC)c1OC`, the inhibition at 0.001 µM stood at 3% and the inhibition at 0.01 µM was found to be 28%.

With `COc1cc(Nc2nc(N)c(-c3nc(-c4cc(NC(=O)C(C)C)ccc4C)no3)s2)cc(OC)c1OC`, the inhibition at 0.001 µM is 6% and the inhibition at 0.01 µM was found to be 1%.

Consider `COc1cc(Nc2nc(N)c(-c3nc(-c4cc(NC(=O)C(O)CC(C)C)ccc4C)no3)s2)cc(OC)c1OC` (centres unmarked), for which the inhibition at 0.001 µM was determined as 5% and the inhibition at 0.01 µM came out at 69%.

On to `COc1cc(Nc2nc(N)c(-c3nc(-c4cc(NC(=O)c5ccc(=O)oc5)ccc4C)no3)s2)cc(OC)c1OC`, for which the inhibition at 0.001 µM amounted to 30% and the inhibition at 0.01 µM is 51%.

As to `COc1cc(Nc2nc(N)c(-c3nc(-c4cc(NC(=O)c5cccc6[nH]ccc56)ccc4C)no3)s2)cc(OC)c1OC`, the inhibition at 0.001 µM amounted to 13% and the inhibition at 0.01 µM stood at 72%.

For `COc1cc(Nc2nc(N)c(-c3nc(-c4cc(NC(=O)C5=C[C@@H](O)[C@@H](O)[C@H](O)C5)ccc4C)no3)s2)cc(OC)c1OC`, the inhibition at 0.001 µM turned out to be 4% and the inhibition at 0.01 µM stood at 6%.

`COc1cc(Nc2nc(N)c(-c3nc(-c4cc(NC(=O)[C@H]5CC(=O)NC(=O)N5)ccc4C)no3)s2)cc(OC)c1OC`: the inhibition at 0.001 µM came out at 25% and the inhibition at 0.01 µM was found to be 2%.

Take `COc1cc(Nc2nc(N)c(-c3nc(-c4cc(NC(=O)CCCN(C)C)ccc4C)no3)s2)cc(OC)c1OC`: the inhibition at 0.001 µM came out at 5% and the inhibition at 0.01 µM stood at 16%.

With `COc1cc(Nc2nc(N)c(-c3nc(-c4cc(NC(=O)[C@H]5CCC(=O)N5)ccc4C)no3)s2)cc(OC)c1OC`, the inhibition at 0.001 µM was -4% and the inhibition at 0.01 µM was 13%.

For `C=CCC(=O)Nc1ccc(C)c(-c2noc(-c3sc(Nc4cc(OC)c(OC)c(OC)c4)nc3N)n2)c1`, the inhibition at 0.001 µM worked out at 35% and the inhibition at 0.01 µM is 72%.

`COc1cc(Nc2nc(N)c(-c3nc(-c4cc(NC(=O)C5CCN(C(C)=O)CC5)ccc4C)no3)s2)cc(OC)c1OC`: the inhibition at 0.001 µM was -4% and the inhibition at 0.01 µM came out at 16%.

Turning to `COc1cc(Nc2nc(N)c(-c3nc(-c4cc(NC(=O)C5CCOC5)ccc4C)no3)s2)cc(OC)c1OC` (centres unmarked), the inhibition at 0.001 µM was 16% and the inhibition at 0.01 µM was 6%.

With `COc1cc(Nc2nc(N)c(-c3nc(-c4cc(NC(=O)C5=CCCN(C)C5)ccc4C)no3)s2)cc(OC)c1OC`, the inhibition at 0.001 µM came to 5% and the inhibition at 0.01 µM was found to be 1%.

With `COc1cc(Nc2nc(N)c(-c3nc(-c4cc(NC(=O)C5CCCN5C(C)=O)ccc4C)no3)s2)cc(OC)c1OC` (centres unmarked), the inhibition at 0.001 µM was -13% and the inhibition at 0.01 µM was -24%.

`COc1cc(Nc2nc(N)c(-c3nc(-c4cc(NC(=O)/C=C/C5CC[C@H]6C=C[C@@H]5C6)ccc4C)no3)s2)cc(OC)c1OC` (some centres unmarked): the inhibition at 0.001 µM is -12% and the inhibition at 0.01 µM was found to be 25%.

For `CCC(C(=O)Nc1ccc(C)c(-c2noc(-c3sc(Nc4cc(OC)c(OC)c(OC)c4)nc3N)n2)c1)c1ccccc1C` (centres unmarked), the inhibition at 0.001 µM was -14% and the inhibition at 0.01 µM turned out to be 13%.

Regarding `COc1cc(Nc2nc(N)c(-c3nc(-c4cc(NC(=O)C[C@@H]5OC(C)(C)OC5=O)ccc4C)no3)s2)cc(OC)c1OC`, the inhibition at 0.001 µM is -2% and the inhibition at 0.01 µM was determined as 3%.

`COc1cc(Nc2nc(N)c(-c3nc(-c4cc(NC(=O)c5ccc(C(C)(C)C)o5)ccc4C)no3)s2)cc(OC)c1OC`: the inhibition at 0.001 µM is -9% and the inhibition at 0.01 µM was 48%.

Regarding `COc1cc(Nc2nc(N)c(-c3nc(-c4cc(NC(=O)/C=C(\C)c5ccccc5C)ccc4C)no3)s2)cc(OC)c1OC`, the inhibition at 0.001 µM was -27% and the inhibition at 0.01 µM was found to be 8%.

With `COc1cc(Nc2nc(N)c(-c3nc(-c4cc(NC(=O)c5ccc(C(C)=O)s5)ccc4C)no3)s2)cc(OC)c1OC`, the inhibition at 0.001 µM worked out at 35% and the inhibition at 0.01 µM was determined as 93%.

Regarding `COc1cc(Nc2nc(N)c(-c3nc(-c4cc(NC(=O)C(C)OC=C(C)C)ccc4C)no3)s2)cc(OC)c1OC` (centres unmarked), the inhibition at 0.001 µM is -21% and the inhibition at 0.01 µM is 11%.

Consider `COc1cc(Nc2nc(N)c(-c3nc(-c4cc(NC(=O)/C=C/C(=O)NCC5CC5)ccc4C)no3)s2)cc(OC)c1OC`, for which the inhibition at 0.001 µM was found to be 39% and the inhibition at 0.01 µM was found to be 5%.

Regarding `COc1ccc(C#N)c(C(=O)Nc2ccc(C)c(-c3noc(-c4sc(Nc5cc(OC)c(OC)c(OC)c5)nc4N)n3)c2)c1`, the inhibition at 0.001 µM was determined as 9% and the inhibition at 0.01 µM stood at 1%.

`COc1cc(Nc2nc(N)c(-c3nc(-c4cc(NC(=O)c5cc(C)cc(=O)o5)ccc4C)no3)s2)cc(OC)c1OC`: the inhibition at 0.001 µM is -2% and the inhibition at 0.01 µM worked out at 66%.

For `COc1cc(Nc2nc(N)c(-c3nc(-c4cc(NC(=O)Cc5cn(C)cn5)ccc4C)no3)s2)cc(OC)c1OC`, the inhibition at 0.001 µM was -7% and the inhibition at 0.01 µM is -14%.

Regarding `COc1cc(Nc2nc(N)c(-c3nc(-c4cc(NC(=O)CC(C)(C)NC(C)=O)ccc4C)no3)s2)cc(OC)c1OC`, the inhibition at 0.001 µM came to 2% and the inhibition at 0.01 µM is -11%.

In the case of `CCO/C(C)=C/C(=O)Nc1ccc(C)c(-c2noc(-c3sc(Nc4cc(OC)c(OC)c(OC)c4)nc3N)n2)c1`, the inhibition at 0.001 µM was 21% and the inhibition at 0.01 µM stood at 78%.

As to `COc1cc(Nc2nc(N)c(-c3nc(-c4cc(NC(=O)[C@H]5C[C@@H](C)[C@@H](C)[C@H]5C)ccc4C)no3)s2)cc(OC)c1OC`, the inhibition at 0.001 µM was -21% and the inhibition at 0.01 µM amounted to 5%.

For `C/C=C/C(=O)Nc1ccc(C)c(-c2noc(-c3sc(Nc4cc(OC)c(OC)c(OC)c4)nc3N)n2)c1`, the inhibition at 0.001 µM was found to be 9% and the inhibition at 0.01 µM was determined as 65%.

For `COc1cc(Nc2nc(N)c(-c3nc(-c4cc(NC(=O)C[C@H](C)c5ccccc5)ccc4C)no3)s2)cc(OC)c1OC`, the inhibition at 0.001 µM was -30% and the inhibition at 0.01 µM worked out at 24%.

Consider `COc1cc(Nc2nc(N)c(-c3nc(-c4cc(NC(=O)CC5=CCCCC5)ccc4C)no3)s2)cc(OC)c1OC`, for which the inhibition at 0.001 µM is -12% and the inhibition at 0.01 µM was found to be 43%.

`COc1cc(Nc2nc(N)c(-c3nc(-c4cc(NC(=O)C(=O)C5=CCCCC5)ccc4C)no3)s2)cc(OC)c1OC`: the inhibition at 0.001 µM was -36% and the inhibition at 0.01 µM came to 11%.

With `COc1cc(Nc2nc(N)c(-c3nc(-c4cc(NC(=O)C5CNC(=O)N5)ccc4C)no3)s2)cc(OC)c1OC` (centres unmarked), the inhibition at 0.001 µM was -43% and the inhibition at 0.01 µM is -7%.

Take `COc1cc(Nc2nc(N)c(-c3nc(-c4cc(NC(=O)C5CC5C)ccc4C)no3)s2)cc(OC)c1OC` (centres unmarked): the inhibition at 0.001 µM came to 24% and the inhibition at 0.01 µM was found to be 6%.

Regarding `COc1cc(Nc2nc(N)c(-c3nc(-c4cc(NC(=O)c5cc(F)ccc5C)ccc4C)no3)s2)cc(OC)c1OC`, the inhibition at 0.001 µM amounted to 29% and the inhibition at 0.01 µM came out at 64%.

As to `COc1cc(Nc2nc(N)c(-c3nc(-c4cc(NC(=O)C5CCSCN5C)ccc4C)no3)s2)cc(OC)c1OC` (centres unmarked), the inhibition at 0.001 µM worked out at 14% and the inhibition at 0.01 µM was determined as 29%.

With `COc1cc(Nc2nc(N)c(-c3nc(-c4cc(NC(=O)[C@H]5CCC[C@H]5O)ccc4C)no3)s2)cc(OC)c1OC`, the inhibition at 0.001 µM is 45% and the inhibition at 0.01 µM was found to be 9%.

Consider `COc1cc(Nc2nc(N)c(-c3nc(-c4cc(NC(=O)C5CCC(=O)CC5)ccc4C)no3)s2)cc(OC)c1OC`, for which the inhibition at 0.001 µM came out at 23% and the inhibition at 0.01 µM is -24%.

On to `COc1cc(Nc2nc(N)c(-c3nc(-c4cc(NC(=O)c5ccccc5C(C)C)ccc4C)no3)s2)cc(OC)c1OC`, for which the inhibition at 0.001 µM stood at 6% and the inhibition at 0.01 µM was determined as 11%.

Regarding `COc1cc(Nc2nc(N)c(-c3nc(-c4cc(NC(=O)[C@H](C)C(C)C)ccc4C)no3)s2)cc(OC)c1OC`, the inhibition at 0.001 µM is -8% and the inhibition at 0.01 µM was -18%.

`CCn1nc(C)cc1C(=O)Nc1ccc(C)c(-c2noc(-c3sc(Nc4cc(OC)c(OC)c(OC)c4)nc3N)n2)c1`: the inhibition at 0.001 µM was -4% and the inhibition at 0.01 µM came to 44%.

Turning to `COc1cc(Nc2nc(N)c(-c3nc(-c4cc(NC(=O)[C@H](O)C(C)(C)C)ccc4C)no3)s2)cc(OC)c1OC`, the inhibition at 0.001 µM is -34% and the inhibition at 0.01 µM was -11%.

In the case of `COc1cc(Nc2nc(N)c(-c3nc(-c4cc(NC(=O)C5CC(=O)N(C)C5)ccc4C)no3)s2)cc(OC)c1OC` (centres unmarked), the inhibition at 0.001 µM was 16% and the inhibition at 0.01 µM is -18%.

Consider `COc1cc(Nc2nc(N)c(-c3nc(-c4cc(NC(=O)[C@@H](OC)c5ccccc5)ccc4C)no3)s2)cc(OC)c1OC`, for which the inhibition at 0.001 µM is -11% and the inhibition at 0.01 µM worked out at 63%.

`COc1ccccc1/C=C/C(=O)Nc1ccc(C)c(-c2noc(-c3sc(Nc4cc(OC)c(OC)c(OC)c4)nc3N)n2)c1`: the inhibition at 0.001 µM stood at 13% and the inhibition at 0.01 µM was determined as 31%.

Regarding `COc1cc(Nc2nc(N)c(-c3nc(-c4cc(NC(=O)C5CC6C=CCC(C6)C5)ccc4C)no3)s2)cc(OC)c1OC` (centres unmarked), the inhibition at 0.001 µM is 18% and the inhibition at 0.01 µM amounted to 18%.

Turning to `COc1cc(Nc2nc(N)c(-c3nc(-c4cc(NC(=O)C5CCC6CCC(O)CC5C6)ccc4C)no3)s2)cc(OC)c1OC` (centres unmarked), the inhibition at 0.001 µM came out at 10% and the inhibition at 0.01 µM is 11%.

Regarding `COc1cc(Nc2nc(N)c(-c3nc(-c4cc(NC(=O)C5CC[C@H]6CC(O)CC[C@@H](C5)C6)ccc4C)no3)s2)cc(OC)c1OC` (some centres unmarked), the inhibition at 0.001 µM turned out to be 7% and the inhibition at 0.01 µM is 20%.
